How the values were obtained:
PRL-3 = target: T1, PRL-3 (Homo sapiens, UniProt O75365); assay: DiFMUP phosphatase activity assay for PRLs; format: biochemical; conditions: 50 nM PRL-3, 30 min preincubation, 25°C, 21 μM DiFMUP; mean ± SEM (n = 3–5); read-out: IC50 (Ki) PRL-3
T1 construct: His-TEV (cleaved yes); made in house
Description: Biochemical phosphatase activity measurements were carried out in the presence of different concentrations of various polyphenols, compounds 1–11 (Fig 1), using recombinant PRL-3 and 6,8-difluoro-4-methylumbelliferyl phosphate (DiFMUP) as a fluorogenic substrate (see the experimental procedures). We observed that the monomeric epicatechins EGC and EC inhibit PRL-3 only weakly, with a slightly better activity of EGC, which bears three hydroxyl groups at the B-ring. […] In general, as a basic structure activity-relationship the following trend was observed: a higher number of hydroxyl groups at the B-ring increased the activity slightly. […] The influence of the stereochemistry at C(2)–C(3) was studied by using GCG (the trans-epimer of EGCG).
Fig 2 Effect of polyphenolic compounds 8 (A), 9 (B), 10 (C) and 11 (D) on the phosphatase activity of PRL-1, PRL-2, PRL-3, PP1, and PP2A. Proteins were incubated for 30 min with 0–1000 μM of the corresponding procyandin 8–11. Phosphatase activity was measured in the presence of DiFMUP at 25°C using the concentration corresponding to the KM of each protein. The KM for PRLs was determined separately (PRL-3 = 21 μM, PRL-2 and PRL-1 = 24 μM). The KM for PP1 (91 μM) and for PP2A (100 μM) was taken from the literature. Protein concentrations are 50 nM for all PRLs and 2 mU for PP1 and 0.05 U for PP2A (see the Experimental Procedures). Phosphatase activity in the absence of inhibitors was set as 100%. Data represent means ± standard errors of the mean (n = 3–5).
DiFMUP assay for PRLs: In a final reaction volume of 100 μL the PRLs (50 nM final concentration) were incubated with decreasing concentrations of the inhibitory polyphenols for 30 minutes at 25°C. The buffer conditions were 108 mM TrisCl (pH 7.5), Triton 0.05% (v/v), DTT 27.0 mM, NaCl 811 mM. After the incubation time 20 μL DiFMUP (6,8-Difluoro-4-methylumbelliferyl phosphate) was added to reach a final concentration of 21 μM for PRL-3 and 24 μM for PRL-1 and PRL-2. On a Tecan safire2 (Tecan, Salzburg, Austria) plate reader dephosphorylation of the substrate to its fluorescent product was monitored by following the emission at 358 nm with excitation at 452 nm for 20 minutes. All measurements were done in triplicates, and the experiments were repeated at least three times. The slopes of the initial phases were obtained by linear regression of the data points. The normalized reaction rates were plotted versus the log of the inhibitor concentrations and the IC50 values were obtained by fitting the curves using the one site competition model of GraphPad Prism (GraphPad Software, Version 5). KM values were determined by measuring reaction kinetics of substrate dilution series. Initial velocities were plotted against DiFMUP concentration and the data was analyzed by Michaelis-Menten kinetics curve fitting of GraphPad Prism. A final DMSO content of 0.4% was maintained for the monomeric catechins. Due to the high water solubility of the procyanidins DMSO was not required and measurements were done in assay buffer only.

[1] = test system: HEK293 empty vector control cell line; assay: Wound healing assay; format: cell-based; conditions: 7 h, empty vector cells
Description: (§1) To study if procyanidin C2 is able to inhibit PRL-1 and PRL-3 in cells, HEK293 cells were treated in a wound-healing assay (see the experimental procedures). […] As a control the empty vector cell line was again utilized. […] The migration speed was for all cell lines similar when treated with 50 μM of 9. To further corroborate these findings we performed additionally a transwell assay as an alternative way to study cell migration.
(§2) Fig 6 Wound healing abilities of PRL-1 or PRL-3 overexpressing or empty vector control HEK293 cell lines were analyzed in the presence of compound 9 or medium only. Cells were seeded at a concentration of 800,000 cells per insert and procyanidin C2 (9) was added at a concentration of 25 and 50 μM. A) Pictures of the wound gaps were taken at 0 h and 7 h for both conditions (with and without treatment). B) Quantification of the wound healing experiment. Speed of migration is shown for combined data from different replicates, as mean ± SD (n = 38–88). Two-sided t-tests with Welsh correction were performed for p < 0.05. ns = not significant;***: < 0.001; **: < 0.01; *: < 0.05. C) Effect of polyphenolic compounds in a transwell assay on the cell migration of HEK293 empty vector and PRL-3 overexpressing cell lines. Cells were seeded at a concentration of 100,000 cells per insert and procyanidin C2 (9) was added at a final concentration of 25 and 50 μM. Migration was allowed for 16 h before harvesting and staining with calcein AM for fluorescent readout. Mean ± SD (n = 60–72) is shown for combined data from different replicates. Two-sided t-tests with Welsh correction were performed for p < 0.05. ns = not significant. D) Quantification of wound healing experiment including blocking PRL-1 and PRL-3 with analog 3. Speed of migration is shown for combined data from different replicates, as mean ± SD (n = 63–82). Two-sided t-tests with Welsh correction were performed for p < 0.05.
(§3) Wound healing experiments were carried out with μ-dish 35mm culture inserts. 8 × 10^5 cells/mL of the respective HEK293 stable cell lines were seeded into each of the two insert wells and allowed to settle for 40 h in the presence of tetracycline. Then the inserts were gently removed and growth medium supplemented with 7.5% FBS and 0.1% tetracycline was added as well as procyanidin C2 (9) or procyanidin B3 (8) at a final concentration of 25, 50 or 75 μM. For the experiment including blocking of PRLs with analog 3, the latter one was added at a final concentration of 35 μM, followed by addition of procyanidin C2 (9) at either 25 or 50 μM final concentration. Negative controls contained growth medium with FBS only. Pictures of the wound gap were taken at 0 h and 7 h time points. A Zeiss Cellobserver HS microscope was used with 10 × magnitude. For data analysis, in each experiment, the distances between both cell fronts at time point 0 h and 7 h were measured by taking 20 different measuring points. Then all the measurements from different replicates (4) for each experiment were combined and analyzed by t-test using Welsh correction in GraphPad Prism. Data are shown with 99% confidence intervals.

[2] = test system: PRL-1 overexpressing HEK293 cells; assay: Wound healing assay; format: cell-based; conditions: for cell migration, wound healing: 7 h, PRL-1 overexpressing cells
Description: as §1, §2, §3

[3] = test system: PRL-3 overexpressing HEK293 cells; assay: Wound healing assay; format: cell-based; conditions: for cell migration, wound healing: 7 h, PRL-3 overexpressing cells
Description: as §1, §2, §3

T1 sequence (O75365 whole entry): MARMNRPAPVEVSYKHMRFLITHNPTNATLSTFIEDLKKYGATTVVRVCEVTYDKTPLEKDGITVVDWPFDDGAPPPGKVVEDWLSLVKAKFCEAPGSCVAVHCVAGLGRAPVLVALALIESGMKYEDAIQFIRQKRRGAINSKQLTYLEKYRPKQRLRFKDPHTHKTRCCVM

Compound	IC50 (PRL-3) [µM]	cell migration, wound healing ([1]; 50 μM)	cell migration, wound healing ([1]; 75 μM)	cell migration, wound healing ([2]; 50 μM)	cell migration, wound healing ([2]; 75 μM)	cell migration, wound healing ([3]; 50 μM)	cell migration, wound healing ([3]; 75 μM)	cell migration, wound healing ([1]; 25 μM)	migration, wound healing, PRLs blocked with analog 3 ([2]; 25 μM of 9 plus 35 μM analog 3, PRL-1 overexpressing cells)	cell migration, wound healing ([2]; 25 μM)	migration speed, wound healing, PRLs blocked with analog 3 ([2]; 50 μM of 9 plus 35 μM analog 3, PRL-1 overexpressing cells)	migration, wound healing, PRLs blocked with analog 3 ([3]; 25 μM of 9 plus 35 μM analog 3, PRL-3 overexpressing cells)	cell migration, wound healing ([3]; 25 μM)	migration speed, wound healing, PRLs blocked with analog 3 ([3]; 50 μM of 9 plus 35 μM analog 3, PRL-3 overexpressing cells)
Oc1cc(O)c2c(c1)O[C@H](c1ccc(O)c(O)c1)[C@@H](O)[C@@H]2c1c(O)cc(O)c2c1O[C@H](c1ccc(O)c(O)c1)[C@@H](O)C2 [Procyanidin B3 (8), Procyanidin B3]	127 ± 1.5	did not significantly increase migration behavior	did not significantly increase the migration speed	significantly decreased the number of migrating cells	further decreased migration	did not significantly increase migration behavior	did not significantly increase the migration speed	–	–	–	–	–	–	–
Oc1cc(O)c2c(c1)O[C@H](c1ccc(O)c(O)c1)[C@@H](O)[C@@H]2c1c(O)cc(O)c2c1O[C@H](c1ccc(O)c(O)c1)[C@@H](O)[C@@H]2c1c(O)cc(O)c2c1O[C@H](c1ccc(O)c(O)c1)[C@@H](O)C2 [Procyanidin C2 (9), Procyanidin C2]	18.8 ± 4.5	significantly increased the number of migrating cells	–	did not change any further compared to 25 μM	–	significant decrease in cell migration	–	slightly increased migration behavior	not fully restored to the same level as the empty vector cell line	slight drop in cell migration	exactly the same as for the empty vector cell line	the same as for the empty vector cell line	did not decrease significantly	exactly the same as for the empty vector cell line
